PubChem BioAssay (NCI)
Values joined by “and” are separate entries in the source; they are usually repeats but may differ in a detail not shown here. Equal values may be shown once.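 Growth conditions: 96-well plates. Treatment: test compound, 48 hours, 5 concentrations. Analysis: linear interpolation between bracketing concentrations; unreached endpoints set to highest concentration. GI50: concentration for 50% inhibition of growth. TGI marks complete inhibition of growth.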

Legend:
Assay in all cases: growth of human tumour cells (NCI), 48 h
COLO 205 colon = tested on: COLO 205 colon
HCT-116 colon = tested on: HCT-116 colon
HOP-62 NSCLC = tested on: HOP-62 NSCLC
LOX IMVI melanoma = tested on: LOX IMVI melanoma
MOLT-4 leukemia = tested on: MOLT-4 leukemia
OVCAR-3 ovarian = tested on: OVCAR-3 ovarian
OVCAR-4 ovarian = tested on: OVCAR-4 ovarian
SR leukemia = tested on: SR leukemia
T-47D breast = tested on: T-47D breast
TK-10 renal = tested on: TK-10 renal

Compound	GI50 (COLO 205 colon) [µM]	TGI (COLO 205 colon)	GI50 (HCT-116 colon) [µM]	TGI (HCT-116 colon)	GI50 (HOP-62 NSCLC) [µM]	TGI (HOP-62 NSCLC)	GI50 (LOX IMVI melanoma) [µM]	TGI (LOX IMVI melanoma)	GI50 (MOLT-4 leukemia) [µM]	TGI (MOLT-4 leukemia) [µM]	GI50 (OVCAR-3 ovarian) [µM]	TGI (OVCAR-3 ovarian)	GI50 (OVCAR-4 ovarian) [µM]	TGI (OVCAR-4 ovarian)	GI50 (SR leukemia) [µM]	TGI (SR leukemia) [µM]	GI50 (T-47D breast) [µM]	TGI (T-47D breast) [µM]	GI50 (TK-10 renal) [µM]	TGI (TK-10 renal)
O=C(Nc1cccc(Cl)c1)c1ccc(NC2=C(Cl)C(=O)N(Cc3ccccc3)C2=O)cc1	22.1	> 57 µM	6.31	17.2 µM	18.2	33 µM	4.24	9.27 µM	1.67	4.89	6.08	13.8 µM	19.4	> 61.7 µM	1.39	3.82	17.8	> 54.4	16.4	49.5 µM
COc1cc(-c2nn(-c3cccc(NC(=O)Nc4cc(C(F)(F)F)cc(C(F)(F)F)c4)c3)cc2-c2ccncc2)ccc1Cl	0.817	1.6 µM	0.442	2.44 µM	0.749	1.55 µM	0.783	1.52 µM	1.08	4.48	0.293	1.07 µM	0.698	12.9 µM	0.8	2.99	1.03	26.7	0.719	2.46 µM
COc1ccc(/C=C/C(=O)c2ccc(SC)cc2)cc1OC	21	> 100 µM	2.65	10.1 µM	18.8	42.2 µM	4.12	15.5 µM	22.4	> 100	2.12	6.47 µM	40.5	> 100 µM	3.06	42.9	37.2	> 100	14.7	32.8 µM
COC1CC2CCC(C)C(O)(O2)C(=O)C(=O)N2CCCCC2C(=O)OC(C(C)CC2CCC(O)C(OC)C2)CC(=O)C(C)C=C(C)C(O)C(OC)C(=O)C(C)CC(C)/C=C/C=C/C=C1C (stereo not given)	5.64	12.9 µM	4.34	11.3 µM	0.159	9.96 µM	0.015	13.1 µM	0.0787	13.9	4.49	10.9 µM	< 0.005	10.5 µM	< 0.005	15.2	< 0.005	20.9	5.62	19.7 µM
O=C(c1ccco1)c1nc2cc(Cl)ccc2[n+]([O-])c1C(F)(F)F	> 100	> 100 µM	40.6	> 100 µM	76.7	> 100 µM	48.4	> 100 µM	27.1	66.6	> 100	> 100 µM	29.2	75.7 µM	17.1	44.3	27.5	> 100	44.1	> 100 µM
Cc1cc2nc3c4cc(N)ccc4n(CCN(C)C)c3nc2cc1C	0.408	5.27 µM	0.365	10.9 µM	0.687	14.7 µM	0.461	3.27 µM	0.376	> 31.9	1.39	6.87 µM	1.79	9.64 µM	0.285	7.29	1.71	12.3	1.99	7.54 µM
CC1(C)N=C(N)N=C(N)N1c1ccc(OCCCCOc2ccc(S(=O)(=O)F)cc2)c(Cl)c1	0.137	15.5 µM	0.0463	16.7 µM	0.269	12.9 µM	0.0761	14.3 µM	0.135	16.3	0.655	16.6 µM	6.4	27.7 µM	0.0445	26.9	1.14	13.2	1.13	20.7 µM
O=C(Nc1cc(Cl)cc(Cl)c1)c1ccc(NC2=C(Cl)C(=O)N(Cc3ccc(Cl)cc3Cl)C2=O)cc1	12.1	35.4 µM	4.06	16.9 µM	34.1	> 100 µM	1.5	4.19 µM	0.249	1.53	26.8	70.2 µM	21.8	> 100 µM	0.0622	0.238	3.12	73.9	0.768	26 µM
CCOc1ccc(-c2nonc2NC(=O)c2cccc(C)c2)cc1OCC	> 100	> 100 µM	35.7	> 100 µM	> 100	> 100 µM	> 100	> 100 µM	> 100	> 100	> 100	> 100 µM	> 100	> 100 µM	> 100	> 100	> 100	> 100	22.7	46.8 µM
CC1=C2C[C@H]3[C@@H](CC[C@@H]4CC(NS(C)(=O)=O)CC[C@@]43C)[C@@H]2CC[C@@]2(C1)O[C@@H]1C[C@H](C)CN[C@H]1[C@H]2C (stereo not given in full)	2.25	4.43 µM	4.77	18.4 µM	11.3	24.8 µM	5.48	16.3 µM	5.5	23.2	4	14 µM	1.66	4.79 µM	3.38	12	2.68	7.51	11.3	24.4 µM
Cc1cc(S(N)(=O)=O)c(S/C(CC(C)C)=N\Nc2ccc([N+](=O)[O-])cc2)cc1Cl	6.46	20.9 µM	3.53	13 µM	13.5	26.4 µM	5.81	29.2 µM	4.57	> 100	3.19	7.07 µM	5.01	20.5 µM	1.84	6.26	3.1	8.33	2.93	8.33 µM
O=C(/C=C/c1cccnc1)NCCCCC1CCCN(C(=O)c2ccccc2)C1 (stereo not given)	0.75	> 100 µM	< 0.01	> 100 µM	> 94.2	> 100 µM	5.67	> 100 µM	23	> 100	> 47.9	> 100 µM	> 74	> 100 µM	0.0617	> 100	< 0.01	> 100	> 100	> 100 µM
CCOC(=O)N1CCc2cc(OC)c(OC)c3c2c1cc1cc(OC)c(OC)cc13		9.06 µM		30.7 µM		> 83.6 µM		52.3 µM		> 100		8.64 µM		> 95.3 µM		> 38.6		> 60.2		> 100 µM
COc1cc2cc(Oc3ccc(NC(=O)Nc4cccc(C(F)(F)F)c4)cc3)c(C)nc2cc1OC	1.12	2.4 µM	1.46	5.84 µM	2.33	8.44 µM	1.84	6.61 µM	1.55	6.87	2.04	8.07 µM	2.3	9.7 µM	1.17	3.33	1.61	6.68	2.26	9.93 µM
C/C(=N\Nc1cc(C)c2cc(C)ccc2n1)c1ccccn1	< 0.0201	1.17 µM	< 0.0497	1.36 µM	0.055	1.41 µM	0.0744	1.23 µM		0.361	< 0.0206	1.31 µM	0.0303	0.367 µM	< 0.031	0.491	< 0.0464	1.46		2.82 µM
O=c1c2ccccc2n(C[C@H]2CO2)c2ccccc12	1.49	4.15 µM	1.12	8.78 µM	2.13	5.84 µM	1.51	3.15 µM	0.29	2.35	2.31	7.19 µM	2.4	7.89 µM	0.302	4.37	2.53	8.38	2.34	6.77 µM
COC(=O)C1=C(C(=O)ON)C2C=CC1(C(Cc1ccccc1)Nc1ccccc1)O2 (stereo not given)	1.78	3.33 µM	1.77	3.24 µM	14.4	27.9 µM	1.74	3.24 µM	2.9	9.49	1.72	3.11 µM	1.66	3.12 µM	2.67	43.6	1.46	3.25	1.71	3.08 µM
Ic1ccccc1-c1ccccc1	> 100	> 100 µM	94.9	> 100 µM	> 100	> 100 µM	42.4	> 100 µM	26.8	> 100	> 100	> 100 µM	> 100	> 100 µM	18.3	> 100	70.5	> 100	> 100	> 100 µM
Nc1c(Br)cc(Br)c2c1[nH]c(=O)c1ccccc12	22.1	> 100 µM	3.98	20.2 µM	2.56	6.39 µM	20.5	> 100 µM	18.4	> 63.8	11.5	43.4 µM	1.34	3.43 µM	2.39	5.91	2.41	17.5	3.67	10.9 µM
Cc1c(-c2c(-c3ccc(F)o3)sc3ncnc(O[C@H](Cc4ccccc4OCc4ccnn4CC(F)(F)F)C(=O)O)c23)ccc(OCCN2CCN(C)CC2)c1Cl	4.29	9.26 µM	3.9	9.23 µM	5.31	14.3 µM	3.03	6.8 µM	0.108	4.71	3.82	7.67 µM	4.86	17.8 µM	0.162	2.01	5.14	16.3	5.31	16.2 µM
CCOC(=O)c1[nH]c(Br)c(-c2ccc(Br)cc2)c1Br		2.54 µM and 1.85 µM	0.445	1.92 µM and 10.6 µM	0.514	4.74 µM and 2.81 µM	0.641	5.29 µM and 12.4 µM		11.4	0.37	0.759 µM and 1.61 µM		3.6 µM and 3.5 µM	0.199	11.1	2.66	65.7	2.34	9.99 µM and 11.3 µM
